Results on 1 molecule are retold here after PMC5218480 (PLoS ONE, 2017).

The test system of the assay is MV-4-11 cells. Briefly: Gene expression microarray analysis (Affymetrix PrimeView) and GSEA. The format is cell-based, human. Details: RFU PODN (11730768_x_at) / Fold change /veh PODN (11730768_x_at) / RFU LINC00158 (11744669_a_at) / Fold change /veh LINC00158 (11744669_a_at) / RFU DUSP10 (11751237_a_at) / Fold change /veh DUSP10 (11751237_a_at) / RFU ID3 (11757404_x_at) / Fold change /veh ID3 (11757404_x_at) / RFU PLEKHG5 (11737974_s_at) / Fold change /veh PLEKHG5 (11737974_s_at) / RFU LRRC4B (11730491_at) / Fold change /veh LRRC4B (11730491_at) / RFU GIMAP4 (11747438_a_at) / Fold change /veh GIMAP4 (11747438_a_at) / RFU KRT8 (11758183_x_at) / Fold change /veh KRT8 (11758183_x_at) / RFU CNN1 (11734310_a_at) / Fold change /veh CNN1 (11734310_a_at) / RFU VPS37D (11726825_at) / Fold change /veh VPS37D (11726825_at) / RFU C10orf10 (11716522_x_at) / Fold change /veh C10orf10 (11716522_x_at) / RFU KIR2DL2 /// KIR2DL4 /// KIR2DL5A /// KIR2DL5B /// KIR2DS1 /// KIR2DS2 /// KIR2DS3 /// KIR2DS4 /// KIR3DL3 /// KIR3DL3 /// KIR3DS1 (11738374_at) / Fold change /veh KIR2DL2 /// KIR2DL4 /// KIR2DL5A /// KIR2DL5B /// KIR2DS1 /// KIR2DS2 /// KIR2DS3 /// KIR2DS4 /// KIR3DL3 /// KIR3DL3 /// KIR3DS1 (11738374_at) / RFU C1QL1 (11718748_at) / Fold change /veh C1QL1 (11718748_at) / RFU TMPRSS4 (11747572_a_at) / Fold change /veh TMPRSS4 (11747572_a_at) / RFU HAMP (11756126_x_at) / Fold change /veh HAMP (11756126_x_at) / RFU RNFT2 (11725882_a_at) / Fold change /veh RNFT2 (11725882_a_at) / RFU NR4A2 (11747474_a_at) / Fold change /veh NR4A2 (11747474_a_at) / RFU ABCC12 (11746883_a_at) / Fold change /veh ABCC12 (11746883_a_at) / RFU TMEM136 (11760407_x_at) / Fold change /veh TMEM136 (11760407_x_at) / RFU CLDN22 /// WWC2 (11732394_at) / Fold change /veh CLDN22 /// WWC2 (11732394_at) / RFU HLA-DPB1 (11760878_x_at) / Fold change /veh HLA-DPB1 (11760878_x_at) / RFU SPINT1 (11716480_a_at) / Fold change /veh SPINT1 (11716480_a_at) / RFU GAP43 (11754022_s_at) / Fold change /veh GAP43 (11754022_s_at) / RFU A4GNT (11735810_at) / Fold change /veh A4GNT (11735810_at) / RFU PRB3 (11715151_x_at) / Fold change /veh PRB3 (11715151_x_at) / RFU TUBB4B (11761932_at) / Fold change /veh TUBB4B (11761932_at) / RFU CAPN14 (11732068_a_at) / Fold change /veh CAPN14 (11732068_a_at) / RFU TMCC2 (11721928_a_at) / Fold change /veh TMCC2 (11721928_a_at) / RFU IRGQ (11745062_a_at) / Fold change /veh IRGQ (11745062_a_at) / RFU FAM174B (11720279_a_at) / Fold change /veh FAM174B (11720279_a_at) / RFU TMPRSS4 (11748680_a_at) / Fold change /veh TMPRSS4 (11748680_a_at) / RFU FAM212B (11763350_a_at) / Fold change /veh FAM212B (11763350_a_at) / RFU PLEKHG5 (11743358_a_at) / Fold change /veh PLEKHG5 (11743358_a_at) / RFU ZSCAN30 (11745921_a_at) / Fold change /veh ZSCAN30 (11745921_a_at) / RFU CMKLR1 (11741424_a_at) / Fold change /veh CMKLR1 (11741424_a_at) / RFU LOC101060620 /// MAPK8IP1 (11723275_at) / Fold change /veh LOC101060620 /// MAPK8IP1 (11723275_at) / RFU SPTSSB (11747773_x_at) / Fold change /veh SPTSSB (11747773_x_at) / RFU PRSS12 (11739890_at) / Fold change /veh PRSS12 (11739890_at) / RFU BIN1 (11741810_x_at) / Fold change /veh BIN1 (11741810_x_at) / RFU WNT11 (11732464_a_at) / Fold change /veh WNT11 (11732464_a_at) / RFU C10orf10 (11716521_a_at) / Fold change /veh C10orf10 (11716521_a_at) / RFU C5orf56 (11738089_at) / Fold change /veh C5orf56 (11738089_at) / RFU CYB561 (11721691_x_at) / Fold change /veh CYB561 (11721691_x_at) / RFU ANKRD19P (11752326_a_at) / Fold change /veh ANKRD19P (11752326_a_at) / RFU OR2T12 /// OR2T33 /// OR2T8 (11738714_s_at) / Fold change /veh OR2T12 /// OR2T33 /// OR2T8 (11738714_s_at) / RFU VCAN (11748164_a_at) / Fold change /veh VCAN (11748164_a_at) / RFU JSRP1 (11732532_at) / Fold change /veh JSRP1 (11732532_at) / RFU KRTAP10-11 (11738290_x_at) / Fold change /veh KRTAP10-11 (11738290_x_at) / RFU MYO3A (11730013_a_at) / Fold change /veh MYO3A (11730013_a_at) / RFU EBF3 (11725865_a_at) / Fold change /veh EBF3 (11725865_a_at) / RFU CAMK2N1 (11719241_x_at) / Fold change /veh CAMK2N1 (11719241_x_at) / RFU C5orf56 (11738088_a_at) / Fold change /veh C5orf56 (11738088_a_at) / RFU OLFML3 (11715873_a_at) / Fold change /veh OLFML3 (11715873_a_at) / RFU LOC100653217 /// NTM (11731650_a_at) / Fold change /veh LOC100653217 /// NTM (11731650_a_at) / RFU MAPK11 (11762145_a_at) / Fold change /veh MAPK11 (11762145_a_at) / RFU FIZ1 (11724087_x_at) / Fold change /veh FIZ1 (11724087_x_at) / RFU OASL (11726364_x_at) / Fold change /veh OASL (11726364_x_at) / RFU SOX15 (11748057_x_at) / Fold change /veh SOX15 (11748057_x_at) / RFU CD79A (11719716_a_at) / Fold change /veh CD79A (11719716_a_at) / RFU HIST1H1D (11736915_at) / Fold change /veh HIST1H1D (11736915_at) / RFU CASKIN2 (11723855_a_at) / Fold change /veh CASKIN2 (11723855_a_at) / RFU LOC730098 (11760151_x_at) / Fold change /veh LOC730098 (11760151_x_at) / RFU OR4N2 (11742367_at) / Fold change /veh OR4N2 (11742367_at) / RFU PRRT2 (11749266_a_at) / Fold change /veh PRRT2 (11749266_a_at) / RFU SNX32 (11753110_a_at) / Fold change /veh SNX32 (11753110_a_at) / RFU CDHR5 (11726645_a_at) / Fold change /veh CDHR5 (11726645_a_at) / RFU RCAN1 (11760418_a_at) / Fold change /veh RCAN1 (11760418_a_at) / RFU FAM167A (11723789_a_at) / Fold change /veh FAM167A (11723789_a_at) / RFU FAM26E (11764081_at) / Fold change /veh FAM26E (11764081_at) / RFU ISYNA1 (11749810_s_at) / Fold change /veh ISYNA1 (11749810_s_at) / RFU ACY1 (11761880_at) / Fold change /veh ACY1 (11761880_at) / RFU 11764098_at / Fold change /veh 11764098_at / RFU SAMD14 (11745864_x_at) / Fold change /veh SAMD14 (11745864_x_at) / RFU NPB (11741838_a_at) / Fold change /veh NPB (11741838_a_at) / RFU TMPRSS6 (11731388_a_at) / Fold change /veh TMPRSS6 (11731388_a_at) / RFU KRTAP10-2 (11738614_at) / Fold change /veh KRTAP10-2 (11738614_at) / RFU ARHGAP8 /// PRR5-ARHGAP8 (11727945_x_at) / Fold change /veh ARHGAP8 /// PRR5-ARHGAP8 (11727945_x_at) / RFU KRTAP5-7 /// NADSYN1 (11734609_at) / Fold change /veh KRTAP5-7 /// NADSYN1 (11734609_at) / RFU RASL12 (11751679_a_at) / Fold change /veh RASL12 (11751679_a_at) / RFU CDKN2B (11736163_a_at) / Fold change /veh CDKN2B (11736163_a_at) / RFU PRF1 (11729649_at) / Fold change /veh PRF1 (11729649_at) / RFU, ZNF638 /// ZNF638-IT1 / Fold change vs veh, ZNF638 /// ZNF638-IT1 / RFU, PANK3 / Fold change vs veh, PANK3 / RFU, SH3YL1 / Fold change vs veh, SH3YL1 / RFU, ZEB2 / Fold change vs veh, ZEB2 / RFU, NRIP1 / Fold change vs veh, NRIP1 / RFU, PTTG1IP / Fold change vs veh, PTTG1IP / RFU, CAPN2 / Fold change vs veh, CAPN2 / RFU, MED14 / Fold change vs veh, MED14 / RFU, SNORA58 / Fold change vs veh, SNORA58 / RFU, C1orf63 / Fold change vs veh, C1orf63 / RFU, LRRFIP1 / Fold change vs veh, LRRFIP1 / RFU, NDUFAF7 / Fold change vs veh, NDUFAF7 / RFU, SLC12A2 / Fold change vs veh, SLC12A2 / RFU, IBTK / Fold change vs veh, IBTK / RFU, ESF1 / Fold change vs veh, ESF1 / Fold change vs veh, TMEM50B / RFU, TAOK1 / Fold change vs veh, TAOK1 / RFU, ACBD3 / Fold change vs veh, ACBD3 / RFU, TMA16 / Fold change vs veh, TMA16 / RFU, RWDD3 / Fold change vs veh, RWDD3 / RFU, BCAT1 / Fold change vs veh, BCAT1 / RFU, EDEM3 / Fold change vs veh, EDEM3 / RFU, TMEM33 / Fold change vs veh, TMEM33 / RFU, WDR75 / Fold change vs veh, WDR75 / RFU, AHCTF1 / Fold change vs veh, AHCTF1 / RFU, TFRC / Fold change vs veh, TFRC / RFU, ZDHHC17 / Fold change vs veh, ZDHHC17 / RFU, NOM1 / Fold change vs veh, NOM1 / RFU, ARL8B / Fold change vs veh, ARL8B / RFU, ZBTB11 / Fold change vs veh, ZBTB11 / RFU, TAMM41 / Fold change vs veh, TAMM41 / RFU, KIAA1704 /// LOC100996395 / Fold change vs veh, KIAA1704 /// LOC100996395 / RFU, ING1 / Fold change vs veh, ING1 / RFU, TRMT61B / Fold change vs veh, TRMT61B / RFU, FUBP3 / Fold change vs veh, FUBP3 / RFU, TP53 / Fold change vs veh, TP53 / RFU, TNKS2 / Fold change vs veh, TNKS2 / RFU, ZFP14 / Fold change vs veh, ZFP14 / RFU, ACTR2 / Fold change vs veh, ACTR2 / RFU, PPP3R1 / Fold change vs veh, PPP3R1 / RFU, PIK3R1 / Fold change vs veh, PIK3R1 / RFU, HNRNPA1 / Fold change vs veh, HNRNPA1 / RFU, RNF170 / Fold change vs veh, RNF170 / RFU, ZNF28 / Fold change vs veh, ZNF28 / RFU, RNGTT / Fold change vs veh, RNGTT / RFU, OGT / Fold change vs veh, OGT / RFU, BRD1 / Fold change vs veh, BRD1 / RFU, MARS / Fold change vs veh, MARS / RFU, ZNF655 / Fold change vs veh, ZNF655 / RFU, FAHD1 / Fold change vs veh, FAHD1 / RFU, BDP1 / Fold change vs veh, BDP1 / RFU, LRRCC1 / Fold change vs veh, LRRCC1 / RFU, ARID1A / Fold change vs veh, ARID1A / RFU, ZNF146 / Fold change vs veh, ZNF146 / RFU, ZNF330 / Fold change vs veh, ZNF330 / RFU, GPN3 / Fold change vs veh, GPN3 / RFU, C9orf123 / Fold change vs veh, C9orf123 / RFU, N4BP2L2 / Fold change vs veh, N4BP2L2 / RFU, ARFIP1 / Fold change vs veh, ARFIP1 / RFU, FAM179B / Fold change vs veh, FAM179B / RFU, BCL10 / Fold change vs veh, BCL10 / RFU, UHRF1BP1L / Fold change vs veh, UHRF1BP1L / RFU, BET1 / Fold change vs veh, BET1 / RFU, CNOT2 / Fold change vs veh, CNOT2 / RFU, ZNF268 / Fold change vs veh, ZNF268 / Fold change vs veh, ZNF507 / RFU, DGCR2 / Fold change vs veh, DGCR2 / RFU, WDSUB1 / Fold change vs veh, WDSUB1 / Fold change vs veh, HSP90B1 /// MIR3652 / RFU, ADSS / Fold change vs veh, ADSS / RFU, GK / Fold change vs veh, GK / RFU, ZNF148 / Fold change vs veh, ZNF148 / RFU, TAF9 / Fold change vs veh, TAF9 / RFU, SLC1A5 / Fold change vs veh, SLC1A5 / RFU, SLMO2 / Fold change vs veh, SLMO2 / RFU, ABCC4 / Fold change vs veh, ABCC4 / RFU, LOC101060439 /// RAP1B / Fold change vs veh, LOC101060439 /// RAP1B / RFU, RFX7 / Fold change vs veh, RFX7 / RFU, GTPBP10 / Fold change vs veh, GTPBP10 / RFU, CNEP1R1 / Fold change vs veh, CNEP1R1 / RFU, BIVM-ERCC5 /// ERCC5 / Fold change vs veh, BIVM-ERCC5 /// ERCC5 / RFU, ILF3 / Fold change vs veh, ILF3 / RFU 11762660_at / Fold change /veh 11762660_at / RFU VCAN (11757783_s_at) / Fold change /veh VCAN (11757783_s_at) / RFU DDX43 (11728927_at) / Fold change /veh DDX43 (11728927_at) / RFU KRT8 (11758188_x_at) / Fold change /veh KRT8 (11758188_x_at) / RFU NKD1 (11759106_at) / Fold change /veh NKD1 (11759106_at) / RFU SRD5A1 (11742802_a_at) / Fold change /veh SRD5A1 (11742802_a_at) / RFU TPSAB1 /// TPSB2 (11721975_s_at) / Fold change /veh TPSAB1 /// TPSB2 (11721975_s_at) / RFU GSTM3 (11746129_a_at) / Fold change /veh GSTM3 (11746129_a_at) / RFU IL23R (11737362_x_at) / Fold change /veh IL23R (11737362_x_at) / RFU TMEM51 (11727254_a_at) / Fold change /veh TMEM51 (11727254_a_at) / RFU PIWIL2 (11732686_x_at) / Fold change /veh PIWIL2 (11732686_x_at) / RFU ORM1 (11744905_x_at) / Fold change /veh ORM1 (11744905_x_at) / RFU CCDC152 (11743942_at) / Fold change /veh CCDC152 (11743942_at) / RFU ECM1 (11717891_a_at) / Fold change /veh ECM1 (11717891_a_at) / RFU IL23R (11748794_a_at) / Fold change /veh IL23R (11748794_a_at) / RFU TNFAIP8L3 (11732012_x_at) / Fold change /veh TNFAIP8L3 (11732012_x_at) / RFU MBOAT4 (11741988_at) / Fold change /veh MBOAT4 (11741988_at) / RFU 11764193_at / Fold change /veh 11764193_at / RFU TMEM53 (11763286_at) / Fold change /veh TMEM53 (11763286_at) / RFU MAGEB2 (11727129_at) / Fold change /veh MAGEB2 (11727129_at) / RFU TMEM200A (11744735_a_at) / Fold change /veh TMEM200A (11744735_a_at) / RFU CCDC152 (11751479_a_at) / Fold change /veh CCDC152 (11751479_a_at) / RFU FAM211A (11726209_a_at) / Fold change /veh FAM211A (11726209_a_at) / RFU RGS16 (11746705_a_at) / Fold change /veh RGS16 (11746705_a_at) / RFU VCAN (11755009_s_at) / Fold change /veh VCAN (11755009_s_at) / RFU RHOB (11743442_s_at) / Fold change /veh RHOB (11743442_s_at) / RFU RGS16 (11720943_a_at) / Fold change /veh RGS16 (11720943_a_at) / RFU RGS16 (11720944_at) / Fold change /veh RGS16 (11720944_at) / RFU, VPS4B / Fold change vs veh, VPS4B / RFU, CREB1 / Fold change vs veh, CREB1 / RFU, DNAJC13 / Fold change vs veh, DNAJC13 / RFU, GNAQ / Fold change vs veh, GNAQ / RFU, CDK5R1 / Fold change vs veh, CDK5R1 / RFU, ZRANB3 / Fold change vs veh, ZRANB3 / RFU, CUL4A / Fold change vs veh, CUL4A / RFU, CCNY / Fold change vs veh, CCNY / RFU, UFL1 / Fold change vs veh, UFL1 / RFU, COG3 / Fold change vs veh, COG3 / RFU, DIAPH2 / Fold change vs veh, DIAPH2 / RFU, SKA2 / Fold change vs veh, SKA2 / RFU, AFF3 / Fold change vs veh, AFF3 / RFU, LMF1 / Fold change vs veh, LMF1 / RFU, IPO11 / Fold change vs veh, IPO11 / RFU, DFFB / Fold change vs veh, DFFB / RFU, FOXP1 / Fold change vs veh, FOXP1 / RFU, CARD8 / Fold change vs veh, CARD8 / RFU, STRN3 / Fold change vs veh, STRN3 / RFU, ADK / Fold change vs veh, ADK / RFU, RASSF2 / Fold change vs veh, RASSF2 / RFU, WIPF1 / Fold change vs veh, WIPF1 / RFU, LARP1B / Fold change vs veh, LARP1B / RFU, RASA1 / Fold change vs veh, RASA1 / RFU, RB1 / Fold change vs veh, RB1 / RFU, PPFIA1 / Fold change vs veh, PPFIA1 / RFU, MAT2A / Fold change vs veh, MAT2A / RFU, CCT5 / Fold change vs veh, CCT5 / RFU, WDR92 / Fold change vs veh, WDR92 / RFU, CUX1 / Fold change vs veh, CUX1 / RFU, TTC7A / Fold change vs veh, TTC7A / RFU, TMEM135 / Fold change vs veh, TMEM135 / RFU, DEPTOR / Fold change vs veh, DEPTOR / RFU, CPM / Fold change vs veh, CPM / RFU, DNAJB6 / Fold change vs veh, DNAJB6 / RFU, CACNA2D3 / Fold change vs veh, CACNA2D3 / RFU, DTX4 / Fold change vs veh, DTX4 / RFU, TFCP2 / Fold change vs veh, TFCP2 / RFU, GMCL1 /// GMCL1P1 / Fold change vs veh, GMCL1 /// GMCL1P1 / RFU, AEBP2 / Fold change vs veh, AEBP2 / RFU, SNHG1 /// SNORD22 /// SNORD25 /// SNORD26 /// SNORD27 /// SNORD28 /// SNORD29 /// SNORD31 / Fold change vs veh, SNHG1 /// SNORD22 /// SNORD25 /// SNORD26 /// SNORD27 /// SNORD28 /// SNORD29 /// SNORD31 / Fold change (Aza/veh), C12orf56 (ProbeSet 11735607_a_at) / Fold change (ACY-1035/veh), C12orf56 (ProbeSet 11735607_a_at) / Fold change (Aza/veh), FGFR1OP (ProbeSet 11751329_s_at) / Fold change (ACY-1035/veh), FGFR1OP (ProbeSet 11751329_s_at) / Fold change (Aza/veh), VPS36 (ProbeSet 11739960_a_at) / Fold change (ACY-1035/veh), VPS36 (ProbeSet 11739960_a_at) / RFU SYPL1 (11715823_x_at) / Fold change /veh SYPL1 (11715823_x_at) / RFU IGFBP7 (11715501_s_at) / Fold change /veh IGFBP7 (11715501_s_at) / RFU REEP3 (11722064_at) / Fold change /veh REEP3 (11722064_at) / RFU IGLL1 (11728026_x_at) / Fold change /veh IGLL1 (11728026_x_at): dose or concentration left out as unconfirmed. The following applies: MV-4-11 cells, 48 hours.

In the case of `Nc1ccc(-c2cccs2)cc1NC(=O)c1ccc2c(c1)cc(C1CC1)n2CCN1CCOCC1` [ACY-1035], the “RFU TUBB4B (11761932_at)” value is given as 19.33 RFU.
